Source: patent US11891401B2, “Solid forms of N-(4-fluoro-3-(6-(3-methylpyridin-2-yl)-[1,2,4]triazolo[1,5-a]pyrimidin-2-yl)phenyl)-2,4-dimethyloxazole-5-carboxamide” (NOVARTIS AG, priority 2018, dated 2024)
Converted amounts (≈) assume the structure as drawn.

Assays:
Type in all cases: physicochemical
[1] = Solubility in various media at 25° C. after 24 hours equilibration (UPLC); settings: for final pH of the sample (in parentheses): after 24 hours equilibration
[2] = Solid-state physical stability: form change by XRPD after stress storage; settings: Solid state
Method: (§1) Compound I, Compound I fumaric acid co-crystals and amorphous Compound I fumaric acid samples (10 mg) were placed in an open vial at 50° C./75% RH and 80° C./75% RH chamber for one week. A same amount of sample was placed in a closed vial at 50° C. and 80° C. chamber for 1 week. The samples were exposed to 100 k Lux light for 12 h at 25° C. Solids were examined by XRPD for physical stability determination and by UPLC for chemical stability determination. The color of the samples was evaluated by visual observation. Table 5 compares the stability of Compound I and its various solid forms.

[3] = Solid-state chemical stability: degradation products by UPLC/HPLC after stress storage; settings: for DP % (Degradation Product), Bulk (UPLC): Solid state; for DP % (Degradation Product), Amber vial (HPLC) / DP % (Degradation Product), Clear vial (HPLC): Xenon light (approx. 1200 kLuxh)
Method: as §1

[4] = Dynamic Vapor Sorption (DVS) moisture absorption / hygroscopicity; settings: for moisture absorption by DVS: at 90% RH, 25° C.; for hygroscopicity: by DVS
[5] = 0.01N HCl pH 2.0, 25° C., 24 hours equilibration
[6] = 0.1N HCl pH 1.0, 25° C., 24 hours equilibration
[7] = FaSSIF pH 6.5, 25° C., 24 hours equilibration
[8] = FeSSIF pH 5.8, 25° C., 24 hours equilibration
[9] = SGF pH 2.0, 25° C., 24 hours equilibration
[10] = acetate buffer pH 4.7, 25° C., 24 hours equilibration
[11] = borate buffer pH 10.0, 25° C., 24 hours equilibration
[12] = phosphate buffer pH 6.8, 25° C., 24 hours equilibration
[13] = water, 25° C., 24 hours equilibration
[14] = 1 week 80° C., closed container
[15] = 1 week 50° C., closed container
[16] = listed as Compound I fumaric acid co-crystals (2:1)

Compound	solubility [1, 5]	final pH of the sample (in parentheses) ([1]; 0.01N HCl pH 2.0)	solubility [1, 6]	final pH of the sample (in parentheses) ([1]; 0.1N HCl pH 1.0)	solubility [1, 7]	final pH of the sample (in parentheses) ([1]; FaSSIF pH 6.5)	solubility [1, 8]	final pH of the sample (in parentheses) ([1]; FeSSIF pH 5.8)	solubility [1, 9]	final pH of the sample (in parentheses) ([1]; SGF pH 2.0)	solubility [1, 10]	final pH of the sample (in parentheses) ([1]; acetate buffer pH 4.7)	final pH of the sample (in parentheses) ([1]; borate buffer pH 10.0)	final pH of the sample (in parentheses) ([1]; phosphate buffer pH 6.8)	final pH of the sample (in parentheses) ([1]; water)	Bulk (XRPD) [2, 14]	DP % (Degradation Product), Bulk (UPLC) [3, 14]	DP % (Degradation Product), Bulk (UPLC) ([3]; 1 week 80° C./75% r.h.)	DP % (Degradation Product), Amber vial (HPLC) [3]	DP % (Degradation Product), Clear vial (HPLC) [3]	further results
Cc1nc(C)c(C(=O)Nc2ccc(F)c(-c3nc4ncc(-c5ncccc5C)cn4n3)c2)o1 [Amorphous Compound I Fumaric Acid (1:1), N-(4-fluoro-3-(6-(3-methylpyridin-2-yl)-[1,2,4]triazolo[1,5-a]pyrimidin-2-yl)phenyl)-2,4-dimethyloxazole-5-carboxamide]	36 µg/mL (≈ 81.2 µM)	(2.1)	350 µg/mL (≈ 789 µM)	(1.1)	7 µg/mL (≈ 15.8 µM)	(5.8)	18 µg/mL (≈ 40.6 µM)	(5.6)	55 µg/mL (≈ 124 µM)	(2.2)	<0.1 µg/mL	(4.6)	(9.6)	(6.6)	(3.0)	no change	2.6%	2.7%	2.8%	4.5%	solubility [1, 11]: <0.1 µg/mL; solubility [1, 12]: <0.1 µg/mL; solubility [1, 13]: 0.2 µg/mL (≈ 0.451 µM)
Cc1nc(C)c(C(=O)Nc2ccc(F)c(-c3nc4ncc(-c5ncccc5C)cn4n3)c2)o1 [Amorphous Compound I Fumaric Acid (2:1), N-(4-fluoro-3-(6-(3-methylpyridin-2-yl)-[1,2,4]triazolo[1,5-a]pyrimidin-2-yl)phenyl)-2,4-dimethyloxazole-5-carboxamide]	9 µg/mL (≈ 20.3 µM)	(2.0)	180 µg/mL (≈ 406 µM)	(1.1)	3 µg/mL (≈ 6.77 µM)	(6.1)	13 µg/mL (≈ 29.3 µM)	(5.7)	25 µg/mL (≈ 56.4 µM)	(2.2)	<0.1 µg/mL	(4.7)	(9,7)	(6.7)	(3.2)	no change	1.7%	1.6%	1.5%	10.6%	solubility [1, 11]: <0.1 µg/mL; solubility [1, 12]: <0.1 µg/mL; solubility [1, 13]: <0.1 µg/mL
Cc1nc(C)c(C(=O)Nc2ccc(F)c(-c3nc4ncc(-c5ncccc5C)cn4n3)c2)o1 [Compound I Fumaric Acid Co-crystal (2:1), N-(4-fluoro-3-(6-(3-methylpyridin-2-yl)-[1,2,4]triazolo[1,5-a]pyrimidin-2-yl)phenyl)-2,4-dimethyloxazole-5-carboxamide]	5 µg/mL	(1.9)	160 µg/mL	(0.8)		(5.9)		(5.5)	30 µg/mL	(1.9)		(4.5)	(9.6)	(6.6)	(3.1)	no change	1.2%	1.2%	1.2%	1.2%	solubility compared to the solubility of the free form ([1]; FeSSIF): significantly better; solubility at 24 h ([1]; thermodynamic from solid, FeSSIF pH 5.8, 25° C., 24 hours equilibration): 17 µg/mL; Bulk (XRPD) [2, 15]: no change; Bulk (XRPD) ([2]; 1 week 50° C./75% r.h.): no change; DP % (Degradation Product), Bulk (UPLC) [3, 15]: 1.2%; DP % (Degradation Product), Bulk (UPLC) ([3]; 1 week 50° C./75% r.h.): 1.2%; solid form after DVS ([4]; after DVS testing, listed as Compound I fumaric acid co-crystals (2:1)): remains the same form; moisture absorption by DVS [4]: 0.12%; moisture absorption by DVS [4, 16]: 0.12%; hygroscopicity [4]: non-hygroscopic; hygroscopicity [4, 16]: non-hygroscopic
Cc1nc(C)c(C(=O)Nc2ccc(F)c(-c3nc4ncc(-c5ncccc5C)cn4n3)c2)o1 [Form C, N-(4-fluoro-3-(6-(3-methylpyridin-2-yl)-[1,2,4]triazolo[1,5-a]pyrimidin-2-yl)phenyl)-2,4-dimethyloxazole-5-carboxamide]			240 µg/mL (≈ 541 µM)	(1.1)		(5.5)		(5.5)	46 µg/mL (≈ 104 µM)	(2.0)		(4.4)		(6.4)	(2.9)	no change	1.8%	1.8%	1.8%	1.8%	Bulk (XRPD) [2, 15]: no change; Bulk (XRPD) ([2]; 1 week 50° C./75% r.h.): no change; DP % (Degradation Product), Bulk (UPLC) [3, 15]: 1.8%; DP % (Degradation Product), Bulk (UPLC) ([3]; 1 week 50° C./75% r.h.): 1.7%; moisture absorption by DVS [4]: approximately 0.6%; hygroscopicity [4]: slightly hygroscopic
